In patent US8207137B2, “Method of inhibiting angiogenesis or invasion or formation of metastases” (INSERM, priority 2001, dated 2012):

What was measured:
CPAE cells [1] = experiment: Model of endothelial cell migration (agarose, 24-well plates); type: cell-based, bovine
Method: The migration model was implemented in 24-well plates. 1.5% agarose was dissolved in the culture medium to form a gel in the wells. Half of an agarose cylinder was then inserted in a well. The CPAE cells were added to the free space left in the well and cultured until their confluence. The piece of agarose was then removed to allow the cells to migrate and AMEP was added, at the desired concentrations, to the culture medium. Then, a transparent graph paper was placed under the plate to determine the migration rate of the cells using an ocular micrometer under reverse microscope. The experiments were performed in duplicate and repeated three times. The results were expressed in percentage in relation to the control.

endothelial cells (CPAE) = experiment: Apoptosis and cell cycle by flow cytometry (Hoechst 33342 and annexin V); type: cell-based, bovine
Method: Technique of specific vital staining of DNA with Hoechst 33342 (Sigma).
The endothelial cells (CPAE) were trypsinated and the cell suspension was adjusted to 1·10^6 cells/ml. Hoechst 33342 dye was added at the rate of 20 μg/ml and the cells were incubated for three minutes at ambient temperature under agitation. The percentage of apoptotic cells was analyzed by a flow cytometer (FACS). The cells were then incubated for 30 minutes in darkness (37° C.) and analysis of the cell cycle was performed.
Technique using annexin V (R and D system): A residue of 1·10^6 endothelial cells (CPAE) was resuspended in 1 ml of reaction buffer (100 μl of 10× binding buffer (100 mM Hepes/NaOH pH 7.4, 1.5 M NaCl, 50 mM KCl, 10 mM MgCl2, 18 mM CaCl2), 100 μl of propidium iodide (initial concentration 50 μg/ml), 10 μl of annexin V-FITC and 790 μl of deionized water. The suspension was incubated for 15 minutes in darkness at ambient temperature. The percentage of apoptotic cells was analyzed by flow cytometry.

CPAE cells [2] = experiment: Formation of capillary structures in fibrin gel, cell aggregates model; type: cell-based, bovine; conditions: 5 μg/ml or 10 μg/ml, 3 days of incubation
Method: One of the models used the aggregates of CPAE cells according to the method described by Pepper et al., 1991. In brief, 10,000 CPAE were aggregated for 24 hours on 2% agarose on a 96-well plate. Three aggregates collected and incorporated in a fibrin gel: purified fibrinogen (3 mg/ml; Kabi) was dialyzed against MEM medium then mixed with 20% of FCS, 1% of L-glutamine, 1% of penicillin/streptomycin, 2 μM of aprotinin and AMEP at the desired concentration. Human thrombin (1 IU/ml; Sigma) was then added to obtain a fibrin gel to the surface of which was added the complete medium supplemented by aprotinin (2 μM), with this medium being changed every three days. Formation of capillary structures could be observed after 24 hours of culture. These capillaries were photographed under reverse microscope and the size of these structures was measured on the photographs. The statistical analysis (Mann-Whitney method) made it possible to determine whether the size of these structures was different.

B16F10 cells = experiment: Syngenic metastatic tumor model (pulmonary metastases); type: in vivo; conditions: C57B1/6 mice, B16F10 i.v.; AMEP expressed in muscle, doxycycline induction; after 7 days of treatment
Excerpt: The cDNA of AMEP was subcloned at the Eco RV site of the vector pBi (Clonetech, Palo Alto, Calif., USA). The expression of the gene of interest in this vector was under the dependence of a promoter responding to tetracycline in an expression system involving the eukaryote gene Tet-On. The Tet-On vector expresses the transactivator rtTA (reverse tetracycline transcriptional activator) and the vector Tet-tTS expresses the silencer tTS (tetracycline transcriptional silencer). The purifications of the plasmids were performed in a manner such that no endotoxin was present (Maxi endo free Kit, Quiagen). The purified plasmid DNA was dissolved in endotoxin-free sterile 0.9% NaCl at the desired concentration.
20 μg of plasmid pBi-AMEP, 10 μg of plasmid Tet-off and 20 μg of plasmid Tet-on were dissolved in 30 μl of sterile 0.9% NaCl and injected into the tibia cranial muscle of nude or C57B1/6 mice aged 8 weeks and previously anesthetized by intraperitoneal inoculation of pentobarbital as described by Mir et al. (Mir et al., 1999). In brief, 8 electric shocks of 200 V/cm were applied for 20 ms at a frequency of 1 Hz, by means of an electrode to the mouse paw and containing two steel plates. The electrode was connected to an electropulsator PS-15 (Jouan, St Herblain, France). The same plasmids not containing the AMEP gene constituted the negative control. […]

## AMEP: disintegrin domain of human metargidin (Met-420 to Glu-511, SEQ ID NO. 2), 91 amino acids, 9.7 kDa; recombinant or expressed in vivo by gene electrotransfer
CPAE cells [1]; 10 μg/ml, phase-contrast microscope (FIG. 3)
  number of dead endothelial cells (floating in the culture medium): augmentation of the number of dead endothelial cells
CPAE cells [1]; CPAE, 10 μg/ml
  inhibition of cell migration: complete inhibition
CPAE cells [1]; CPAE, 2-10 μg/ml
  effect on the displacement rate of the cells: dose dependent
Endothelial cells (CPAE); CPAE, AMEP 5 μg/ml, control 3.9 ± 1.1, mean±SEM
  % of apoptotic cells, Hoechst 33342 method: 12.6 ± 3.7%
Endothelial cells (CPAE); CPAE, AMEP 5 μg/ml, control 4.6 ± 0.9, mean±SEM
  % of apoptotic cells, Annexin-V method: 12.8 ± 2.5%
Endothelial cells (CPAE); Hoechst 33342, not shown
  modification of the cell cycle: no modification of the cell cycle
Endothelial cells (CPAE); both methods (Hoechst 33342, annexin-V)
  percentage of apoptotic cells multiplied by (factor versus control): 3
CPAE cells [2]
  effect on capillary structures: disorganization of capillary structures
B16F10 cells
  inhibition of the number of pulmonary metastases: 74.2%
